Marks after values point to notes of the source that are not given here.
Tests used:
human FAAH = target: T1, human FAAH (Homo sapiens, UniProt O00519); assay: FAAH assay, human FAAH enzyme inactivation (kinact/Ki); format: biochemical; details: oleamide 50 μM, 30° C.; for kinact/KI: pH 7.4, in vitro, read-out: hFAAH kinact/Ki; for hFAAH kinact/Ki: in vitro, pH 7.4
T1 construct: made in house; host or cells: E. coli
T1 sequence (O00519 1-579): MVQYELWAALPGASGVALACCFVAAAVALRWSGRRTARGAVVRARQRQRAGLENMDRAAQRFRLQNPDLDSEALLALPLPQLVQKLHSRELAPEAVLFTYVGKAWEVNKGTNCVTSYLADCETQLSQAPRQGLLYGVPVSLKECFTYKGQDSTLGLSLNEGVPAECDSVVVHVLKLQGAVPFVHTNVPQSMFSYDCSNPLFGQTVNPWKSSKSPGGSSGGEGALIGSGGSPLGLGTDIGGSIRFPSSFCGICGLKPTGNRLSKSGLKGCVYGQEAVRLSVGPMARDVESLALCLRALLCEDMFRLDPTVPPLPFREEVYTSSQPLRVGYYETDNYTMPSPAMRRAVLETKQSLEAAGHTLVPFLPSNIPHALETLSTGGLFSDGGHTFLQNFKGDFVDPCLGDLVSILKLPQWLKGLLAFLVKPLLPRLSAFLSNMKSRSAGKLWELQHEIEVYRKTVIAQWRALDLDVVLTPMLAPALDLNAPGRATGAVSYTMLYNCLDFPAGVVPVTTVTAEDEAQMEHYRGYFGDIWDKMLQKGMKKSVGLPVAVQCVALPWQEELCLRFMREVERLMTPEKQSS
Method in brief: (§1)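 Oleamide hydrolysis by 1-4 nM purified E. coli-expressed FAAH (substrate 50 μM = Km) coupled to GDH/NADH, pH 7.4 phosphate, 7.5% DMSO and EtOH, 30° C; A340 followed 90 min. kobs from mono-exponential fits; kinact/Ki from kobs-versus-concentration slope, multiplied by two.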

Male Sprague-Dawley Rats = assay: In vivo Complete Freund's Adjuvant (CFA) efficacy assay, inhibition of allodynia; set-up: species or system rat; key: (+) indicates the test compound was determined to be efficacious at 3 mpk, oral dosing; (−) indicates the test compound was determined to not be efficacious at 3 mpk, oral dosing; details: p < 0.05 vs vehicle group
Experimental: For additional information on the CFA efficacy assay, see Jayamanne et al., Brit. J. Pharmacol. 2006, 147, 281-288. Experiments were performed on adult Male Sprague-Dawley Rats (200 g-250 g). Inflammation was induced in the left hindpaw of the rat by an intra-plantar injection of 150 uL Complete Freund's Adjuvant (CFA) (SIGMA F5881). The CFA injection immediately induces local inflammation, paw swelling, and pain that persists for at least two weeks post-injection. Baseline paw withdrawal threshold (PWT) was measured to determine the percent inhibition of allodynia using a set of Von Frey Hairs on day 4 post injection as illustrated by the Dixon Up and Down Method (W. J. Dixon, Ann. Rev. Pharmacol. Toxicol. 1980, 20:441-462). […] Following Dose administration PWT threshold was evaluated again at four hours postdose. The Sprague-Dawley rats used in this assay were purchased from Harlan, 8520 Allison Pointe Blvd., Indianapolis, Ind., 46250, U.S.A. Sprague-Dawley rats are an outbred breed of albino rats first produced by the Sprague Dawley farms in Madison, Wis., U.S.A.
Percent Inhibition of Allodynia was determined by the formula: […]
ΔPWT measurements were averaged for each treatment group and statistical comparisons between groups were made using ANOVA and Dunnett's two-tailed test. […]

rat FAAH = target: T2, rat FAAH (Rattus norvegicus, UniProt P97612); assay: FAAH assay, rat FAAH enzyme inactivation (kinact/Ki); format: biochemical; details: oleamide 50 μM, 30° C.; for kinact/KI: pH 7.4, in vitro, read-out: rFAAH kinact/Ki; for rFAAH kinact/Ki: in vitro, pH 7.4
T2 construct: made in house; host or cells: E. coli
T2 sequence (P97612 1-579): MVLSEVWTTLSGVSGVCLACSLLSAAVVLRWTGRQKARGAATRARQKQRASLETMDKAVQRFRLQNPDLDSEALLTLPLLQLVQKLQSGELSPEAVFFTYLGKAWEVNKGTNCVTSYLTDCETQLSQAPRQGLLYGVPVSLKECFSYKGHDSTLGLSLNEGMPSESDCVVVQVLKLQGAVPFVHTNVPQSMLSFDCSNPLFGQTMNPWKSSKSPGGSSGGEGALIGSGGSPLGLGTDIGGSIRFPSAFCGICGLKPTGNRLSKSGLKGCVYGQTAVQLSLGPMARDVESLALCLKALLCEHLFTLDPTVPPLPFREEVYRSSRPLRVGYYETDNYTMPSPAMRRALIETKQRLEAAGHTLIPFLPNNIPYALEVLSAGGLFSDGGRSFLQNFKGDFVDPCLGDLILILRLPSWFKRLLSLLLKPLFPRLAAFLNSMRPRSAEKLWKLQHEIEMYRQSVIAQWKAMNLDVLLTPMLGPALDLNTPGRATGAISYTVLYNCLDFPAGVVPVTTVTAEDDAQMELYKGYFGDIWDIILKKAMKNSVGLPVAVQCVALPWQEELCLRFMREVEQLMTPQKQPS
Method in brief: as §1

[1] = 3 mpk, oral dosing, PWT four hours postdose

Row | SMILES | kinact/KI (human FAAH) [M⁻¹ s⁻¹] | CFA Efficacy (Male Sprague-Dawley Rats; [1]) | kinact/KI (rat FAAH) [M⁻¹ s⁻¹] | hFAAH kinact/Ki (human FAAH) [M⁻¹ s⁻¹] | rFAAH kinact/Ki (rat FAAH) [M⁻¹ s⁻¹] | CFA Efficacy (Male Sprague-Dawley Rats; 10 mpk, intraperitoneal dosing)
1 | Cc1noc(NC(=O)N2CCC3(CC2)C[C@H](c2ccc(OCc4ccc(F)cc4)cc2)CO3)c1C [Example 41, (3R)—N-(3,4-dimethylisoxazol-5-yl)-3-{4-[(4-fluorobenzyl)oxy]phenyl}-1-oxa-8-azaspiro[4.5]decane-8-carboxamide] | 12500 | (+) | 15800 | – | – | –
2 | Cc1noc(NC(=O)N2CCC3(CC2)C[C@@H](c2cccc(-c4ccc(F)c(F)c4)c2)CO3)c1C [Example 57, (3S)-3-(3′,4′-difluorobiphenyl-3-yl)-N-(3,4-dimethylisoxazol-5-yl)-1-oxa-8-azaspiro[4.5]decane-8-carboxamide] | 1610 | (+) | 2110 | – | – | –
3 | Cc1noc(NC(=O)N2CCC3(CC2)CC(c2noc(-c4ccc(OC(F)(F)F)cc4)n2)CO3)c1C (single isomer, unassigned) [Example 73, N-(3,4-dimethylisoxazol-5-yl)-3-{5-[4-(trifluoromethoxy)phenyl]-1,2,4-oxadiazol-3-yl}-1-oxa-8-azaspiro[4.5]decane-8-carboxamide] | – | (+) | – | 2150 | 1340 | –
4 | Cn1nnnc1NC(=O)N1CCC2(CC1)C[C@H](c1cccc(-c3ccc(OC(F)(F)F)cc3)c1)CO2 [Example 97, (3R)—N-(1-methyl-1H-tetrazol-5-yl)-3-[4′-(trifluoromethoxy)biphenyl-3-yl]-1-oxa-8-azaspiro[4.5]decane-8-carboxamide] | 16900 | (+) | 1830 | – | – | –
5 | Cc1noc(NC(=O)N2CCC3(CC2)CC(c2noc(-c4ccc(C(F)(F)F)cc4)n2)CO3)c1C (single isomer, unassigned) [Example 75, N-(3,4-dimethylisoxazol-5-yl)-3-{5-[4-(trifluoromethyl)phenyl]-1,2,4-oxadiazol-3-yl}-1-oxa-8-azaspiro[4.5]decane-8-carboxamide] | 3570 | (+) | 1610 | – | – | –
6 | Cn1nnnc1NC(=O)N1CCC2(CC1)C[C@H](c1ccc(OCc3ccc(F)cc3)cc1)CO2 [Example 90, (3R)-3-{4-[(4-fluorobenzyl)oxy]phenyl}-N-(1-methyl-1H-tetrazol-5-yl)-1-oxa-8-azaspiro[4.5]decane-8-carboxamide] | 30800 | (+) | 22600 | – | – | –
7 | Cc1noc(NC(=O)N2CCC3(CC2)C[C@@H](c2ccc(OCc4cccc(F)c4)cc2)CO3)c1C [Example 48, (3S)—N-(3,4-dimethylisoxazol-5-yl)-3-{4-[(3-fluorobenzyl)oxy]phenyl}-1-oxa-8-azaspiro[4.5]decane-8-carboxamide] | 4470 | (+) | 2540 | – | – | –
8 | Cc1noc(NC(=O)N2CCC3(CC2)C[C@@H](c2cccc(-c4ccc(OC(F)(F)F)cc4)c2)CO3)c1C [Example 63, (3S)—N-(3,4-dimethylisoxazol-5-yl)-3-[4′-(trifluoromethoxy)biphenyl-3-yl]-1-oxa-8-azaspiro[4.5]decane-8-carboxamide] | 2350 | (+) | 2160 | – | – | –
9 | Cn1nnnc1NC(=O)N1CCC2(CC1)CC(c1noc(-c3ccc(OC(F)(F)F)cc3)n1)CO2 (single isomer, unassigned) [Example 84, N-(1-methyl-1H-tetrazol-5-yl)-3-{5-[4-(trifluoromethoxy)phenyl]-1,2,4-oxadiazol-3-yl}-1-oxa-8-azaspiro[4.5]decane-8-carboxamide] | 8420 | (+) | 1500 | – | – | –
10 | Cc1noc(NC(=O)N2CCC3(CC2)C[C@@H](c2ccc(OCc4ccc(F)c(F)c4)cc2)CO3)c1C [Example 52, (3S)-3-{4-[(3,4-difluorobenzyl)oxy]phenyl}-N-(3,4-dimethylisoxazol-5-yl)-1-oxa-8-azaspiro[4.5]decane-8-carboxamide] | 10100 | (+) | 6170 | – | – | –
11 | Cc1noc(NC(=O)N2CCC3(CC2)CC(c2cccc(Cl)c2)CO3)c1C (single isomer, unassigned) [Example 36, 3-(3-chlorophenyl)-N-(3,4-dimethylisoxazol-5-yl)-1-oxa-8-azaspiro[4.5]decane-8-carboxamide] | – | (+) | – | 2590 | 3830 | –
12 | CCc1noc(NC(=O)N2CCC3(CC2)CC(c2ccc(Cl)c(Cl)c2)CO3)c1C (single isomer, unassigned) [Example 68, 3-(3,4-dichlorophenyl)-N-(3-ethyl-4-methylisoxazol-5-yl)-1-oxa-8-azaspiro[4.5]decane-8-carboxamide] | 1920 | (+) | 3030 | – | – | –
13 | Cn1nnnc1NC(=O)N1CCC2(CC1)C[C@@H](c1ccc(OCc3ccc(F)cc3)cc1)CO2 [Example 91, (3S)-3-{4-[(4-fluorobenzyl)oxy]phenyl}-N-(1-methyl-1H-tetrazol-5-yl)-1-oxa-8-azaspiro[4.5]decane-8-carboxamide] | 21200 | (+) | 7500 | – | – | –
14 | O=C(Nc1cccnn1)N1CCC2(CC1)C[C@@H](c1cccc(Oc3ccc(C(F)(F)F)cn3)c1)CO2 [Example 2, (3S)—N-pyridazin-3-yl-3-(3-{[5-(trifluoromethyl)pyridin-2-yl]oxy}phenyl)-1-oxa-8-azaspiro[4.5]decane-8-carboxamide] | 1340 | – | 1130 | – | – | (−)^c
15 | Cc1noc(NC(=O)N2CCC3(CC2)C[C@H](c2ccc(OCc4ccc(F)c(F)c4)cc2)CO3)c1C [Example 51, (3R)-3-{4-[(3,4-difluorobenzyl)oxy]phenyl}-N-(3,4-dimethylisoxazol-5-yl)-1-oxa-8-azaspiro[4.5]decane-8-carboxamide] | 16700 | (+) | 17300 | – | – | –
16 | Cn1nnnc1NC(=O)N1CCC2(CC1)CC(c1noc(-c3ccc(OC(F)(F)F)cc3)n1)CO2 (single isomer, unassigned) [Example 85, N-(1-methyl-1H-tetrazol-5-yl)-3-{5-[4-(trifluoromethoxy)phenyl]-1,2,4-oxadiazol-3-yl}-1-oxa-8-azaspiro[4.5]decane-8-carboxamide] | – | (+) | – | 5980 | 1340 | –
17 | O=C(Nc1cccnn1)N1CCC2(CC1)C[C@H](c1cccc(Oc3ccc(C(F)(F)F)cn3)c1)CO2 [Example 3, (3R)—N-pyridazin-3-yl-3-(3-{[5-(trifluoromethyl)pyridin-2-yl]oxy}phenyl)-1-oxa-8-azaspiro[4.5]decane-8-carboxamide] | 3040 | – | 2240 | – | – | (−)^c

From US20110230493A1, “1-OXA-8-Azaspiro [4,5] Decabe-8-Carboxamide Compounds as FAAH Inhibitors” (Pfizer Inc., priority 2008, published 2011)
